The values below come from US6169181A, “Compounds useful to treat retroviral infections” (Pharmacia & Upjohn Company, priority 1998, dated 2001).

Molecules are shown by their SMILES. Where “and” joins values, the source holds several entries; their conditions need not be identical. Equal entries are not always repeated. Where two headings read alike, the source gives them in different places.

The target in assay [1] is T1, HIV-1 protease (Human immunodeficiency virus type 1 group M subtype B, UniProt P04585). Nature of the assay: biochemical. The following applies: for inhibition at 0.123 µM / inhibition at 0.37 µM / inhibition at 1.1 µM / inhibition at 3.3 µM / inhibition at 10 µM / inhibition at 30 µM: read-out: Protease % Inhib. On the procedure: (§1) The HIV protease screening assay is based on fluorescently labeled substrate which can be resolved from nonlabeled cleavage product using special beads coated with streptavidin. The substrate is biotinylated at the amino terminal arginine and fluorescently labeled with fluorescein isothiocynate (FITC) at the carboxyl terminal lysine. This assay has been employed to detect novel, nonpeptidic inhibitors of HIV-1 protease. Substrate (20 μM of 0.2 μM), sample (10 μl of desired concentraion), and enzyme (10 μl of 0.1 μM) are added to a 96 well pandex plate. The assay is run in 0.1 M sodium acetate buffer at pH 5.5 in the presence of 1.0 M sodium chloride and 0.05% NP-40 with incubated in the dark for one hour at room temperature. Strepavidin coated polystyrene beads {40 μl of 0.1% (w/v)} are added and the plate is incubated in the dark for an additional half hour. The labeled cleavage product is separated from the unreacted substrate via filtration and is read on the Idexx screen machine. The data are analyzed by appropriate computer algorithms to ascertain percent inhibition values.

Assay [2] addresses T1, HIV-1 protease. Nature of the assay: biochemical. On the procedure:
as §1, with “This assay has been employed to detect novel, nonpeptidic inhibitors of HIV-1 protease.” left out
Determination of Ki values utilizes the same materials and equipment employed for percent inhibition studies. Two-fold serial dilutions are made for a given inhibitor from 2, 3 or 4 starting concentrations with a total of 24, 36 or 48 individual inhibitor concentrations. These dilutions are performed utilizing the BioMek robotics system. The assay consists of 10 μL of 40 nM HIV-1 protease, 10 μL of the various inhibitor concentrations, and 20 μL of 200 μM substrate (40 μL total). The reaction is allowed to proceed for 90 min at room temperature, terminated with 40 μL of avidin beads and processed (supra vide). An inhibitor with a known K; is run in parallel to verify the validity of the assay. The data is processed utilizing a computer program employing a nonlinear least square analysis of the data to generate the Ki values.

Where [3] appears, read: Table I, read-out: HIV Protease FITC Assay Ki.
[4] abbreviates: Table II, enzyme HIV-1, DOSE 0.123 (unit not given).
[5] abbreviates: Table II, enzyme HIV-1, DOSE 0.370 (unit not given).
Setting [6] is: Table II, enzyme HIV-1, DOSE 1.100 (unit not given).
The mark [7] stands for this setting: Table II, enzyme HIV-1, DOSE 3.300 (unit not given).
Where [8] appears, read: Table II, enzyme HIV-1, DOSE 10.000 (unit not given).
Setting [9] is: Table II, enzyme HIV-1, DOSE 30.000 (unit not given).
[10] abbreviates: Table II, enzyme HIV-1, read-out: FITC KI.

What is called Ki is the equilibrium dissociation constant of an inhibitor or competing ligand from its target. On to `CC[C@H](Cc1ccccc1)c1cc(O)c(C(c2cccc(NS(=O)(=O)c3cn(C)cn3)c2)C2CC2)c(=O)o1` (single isomer, unassigned) [Example 138, N-(3-(R or S)-[Cyclopropyl-[6-(l-(R)-ethylphenethyl)-4-hydroxy-2-oxo-2H-pyran-3-yl]-methyl}-phenyl)-1-methyl-1H-imidazole-4-sulfonamide], for which the inhibition at 0.123 µM at HIV-1 protease [1] (Table I, Dose 0.123 μM) stood at 101%. The inhibition at 0.37 µM at HIV-1 protease [1] (Table I, Dose 0.370 μM) came to 95.5%. The inhibition at 1.1 µM on HIV-1 protease [1] (Table I, Dose 1.100 μM) was 101%. The inhibition at 3.3 µM at HIV-1 protease [1] (Table I, Dose 3.300 μM) turned out to be 99.6%. On HIV-1 protease [1] (Table I, Dose 10.000 μM), the inhibition at 10 µM was found to be 94.8%. Also, the inhibition at 30 µM at HIV-1 protease [1] (Table I, Dose 30.000 μM) came to 105%. Moreover, on HIV-1 protease [2] (setting [3]), the Ki is 0.73 nM and 1.4 nM.
In the case of `CC[C@@H](Cc1ccccc1)c1cc(O)c(C(c2cccc(NS(=O)(=O)c3cn(C)cn3)c2)C2CC2)c(=O)o1` (single isomer, unassigned) [Example 139, N-(3-(R or S)-{Cyclopropyl-[6-(1-(S)-ethylphenethyl)-4-hydroxy-2-oxo-2H-pyran-3-yl]-methyl}-phenyl)-1-methyl-1H-imidazole-4-sulfonamide], at HIV-1 protease [1] (Table I, Dose 0.123 μM), the inhibition at 0.123 µM amounted to 98.3%. Also, the inhibition at 0.37 µM at HIV-1 protease [1] (Table I, Dose 0.370 μM) came to 101%. The inhibition at 1.1 µM at HIV-1 protease [1] (Table I, Dose 1.100 μM) was found to be 105%. The inhibition at 3.3 µM on HIV-1 protease [1] (Table I, Dose 3.300 μM) was determined as 99.3%. In addition, the inhibition at 10 µM on HIV-1 protease [1] (Table I, Dose 10.000 μM) came to 99.3%. In addition, on HIV-1 protease [1] (Table I, Dose 30.000 μM), the inhibition at 30 µM turned out to be 103%. In addition, the Ki on HIV-1 protease [2] (setting [3]) stood at 1.89 nM.
Take `CC[C@@H](Cc1ccccc1)c1cc(O)c(C(c2cccc(NS(=O)(=O)c3cn(C)cn3)c2)C2CC2)c(=O)o1` (single isomer, unassigned) [Example 140, N-(3-(R or S)-{Cyclopropyl-[6-(1-(S)-ethylphenethyl)-4-hydroxy-2-oxo-2H-pyran-3-yl]-methyl}-phenyl)-1-methyl-1H-imidazole-4-sulfonamide]: the “PROTEASE % INHIB.” value at HIV-1 protease [1] (Table I, Dose 0.123 μM) is given as 103.22%; at HIV-1 protease [1] (Table I, Dose 0.370 μM), 96.01%; at HIV-1 protease [1] (Table I, Dose 1.100 μM), 107.37%; on HIV-1 protease [1] (Table I, Dose 3.300 μM), 112.51%; on HIV-1 protease [1] (Table I, Dose 10.000 μM), 112.53%; on HIV-1 protease [1] (Table I, Dose 30.000 μM) it was 119.14%. For the same compound, the Ki on HIV-1 protease [2] (setting [3]) is 1.44 nM.
In the case of `CC[C@H](Cc1ccccc1)c1cc(O)c(C(c2cccc(NS(=O)(=O)c3ccccn3)c2)C2CC2)c(=O)o1` (single isomer, unassigned) [Example 141, N-(3-(R or S)-{Cyclopropyl-[6-(1-(R)-ethylphenethyl)-4-hydroxy-2-oxo-2H-pyran-3-yl]-methyl}-phenyl)-2-pyridinesulfonamide], at HIV-1 protease [1] (Table I, Dose 0.123 μM), the inhibition at 0.123 µM stood at 78.7%. The inhibition at 0.37 µM on HIV-1 protease [1] (Table I, Dose 0.370 μM) came to 88.7%. For the same compound, the inhibition at 1.1 µM on HIV-1 protease [1] (Table I, Dose 1.100 μM) amounted to 92%. In addition, on HIV-1 protease [1] (Table I, Dose 3.300 μM), the inhibition at 3.3 µM came out at 88.3%. For the same compound, the inhibition at 10 µM on HIV-1 protease [1] (Table I, Dose 10.000 μM) is 97.8%. The inhibition at 30 µM at HIV-1 protease [1] (Table I, Dose 30.000 μM) was found to be 98.5%. Moreover, the Ki on HIV-1 protease [2] (setting [3]) came to 1.4 nM.
As for `CC[C@H](Cc1ccccc1)c1cc(O)c(C(c2cccc(NS(=O)(=O)c3ccccn3)c2)C2CC2)c(=O)o1` (single isomer, unassigned) [Example 142, N-(3-(R or S)-{Cyclopropyl-[6-(1-(R)-ethylphenethyl)-4-hydroxy-2-oxo-2H-pyran-3-yl]-methyl}-phenyl)-2-pyridinesulfonamide], the “PROTEASE % INHIB.” value was determined as 78.01% at HIV-1 protease [1] (Table I, Dose 0.123 μM); 92.52% at HIV-1 protease [1] (Table I, Dose 0.370 μM); 106.64% on HIV-1 protease [1] (Table I, Dose 1.100 μM); 105.15% on HIV-1 protease [1] (Table I, Dose 3.300 μM); 110.58% on HIV-1 protease [1] (Table I, Dose 10.000 μM); 106.77% on HIV-1 protease [1] (Table I, Dose 30.000 μM). Further, on HIV-1 protease [2] (setting [3]), the inhibition constant Ki turned out to be 1.6 nM.
For `CC[C@H](Cc1ccccc1)c1cc(O)c(C(c2cccc(NS(=O)(=O)c3nccn3C)c2)C2CC2)c(=O)o1` (single isomer, unassigned) [Example 143, N-(3-(R or S)-{Cyclopropyl-[6-(1-(R)-ethylphenethyl)-4-hydroxy-2-oxo-2H-pyran-3-yl]-methyl}-phenyl)-1-methyl-1H-imidazole-2-sulfonamide], at HIV-1 protease [1] (Table I, Dose 0.123 μM), the inhibition at 0.123 µM is 80.8%. Besides, at HIV-1 protease [1] (Table I, Dose 0.370 μM), the inhibition at 0.37 µM was 97.7%. Besides, the inhibition at 1.1 µM at HIV-1 protease [1] (Table I, Dose 1.100 μM) amounted to 105%. Besides, the inhibition at 3.3 µM at HIV-1 protease [1] (Table I, Dose 3.300 μM) worked out at 102%. Besides, at HIV-1 protease [1] (Table I, Dose 10.000 μM), the inhibition at 10 µM amounted to 101%. Moreover, on HIV-1 protease [1] (Table I, Dose 30.000 μM), the inhibition at 30 µM was determined as 103%. The Ki on HIV-1 protease [2] (setting [3]) turned out to be 0.8 nM.
In the case of `CC[C@H](Cc1ccccc1)c1cc(O)c(C(c2cccc(NS(=O)(=O)c3nccn3C)c2)C2CC2)c(=O)o1` (single isomer, unassigned) [Example 144, N-(3-(R or S)-{Cyclopropyl-[6-(1-(R)-ethylphenethyl)-4-hydroxy-2-oxo-2H-pyran-3-yl]-methyl}-phenyl)-1-methyl-1H-imidazole-2-sulfonamide], the “PROTEASE % INHIB.” value on HIV-1 protease [1] (Table I, Dose 0.123 μM) amounted to 80.58%; on HIV-1 protease [1] (Table I, Dose 0.370 μM), 87.39%; on HIV-1 protease [1] (Table I, Dose 1.100 μM), 93.82%; at HIV-1 protease [1] (Table I, Dose 3.300 μM), 100.01%; at HIV-1 protease [1] (Table I, Dose 10.000 μM), 98.12%; at HIV-1 protease [1] (Table I, Dose 30.000 μM), 95.88%. At HIV-1 protease [2] (setting [3]), the Ki stood at 1.2 nM.
For the compound `CC[C@H](Cc1ccccc1)c1cc(O)c(C(c2cccc(NS(=O)(=O)c3ccc(C#N)cc3)c2)C2CC2)c(=O)o1` (single isomer, unassigned) [Example 148, N-(3-(R or S)-{Cyclopropyl-[6-(1-(R)-ethylphenethyl)-4-hydroxy-2-oxo-2H-pyran-3-yl]-methyl}-phenyl)-4-cyanobenzenesulfonamide], the inhibition at 0.123 µM on HIV-1 protease [1] (Table I, Dose 0.123 μM) worked out at 81.3%. In addition, the inhibition at 0.37 µM at HIV-1 protease [1] (Table I, Dose 0.370 μM) was 91.7%. Further, the inhibition at 1.1 µM on HIV-1 protease [1] (Table I, Dose 1.100 μM) was determined as 95.6%. For the same compound, the inhibition at 3.3 µM at HIV-1 protease [1] (Table I, Dose 3.300 μM) amounted to 90%. Also, on HIV-1 protease [1] (Table I, Dose 10.000 μM), the inhibition at 10 µM came to 99.2%. Besides, the inhibition at 30 µM on HIV-1 protease [1] (Table I, Dose 30.000 μM) came to 93.5%. Also, the Ki on HIV-1 protease [2] (setting [3]) is 4.77 nM and 18.1 nM.
As to `CCC[C@@]1(CCc2ccc(F)cc2)CC(O)=C([C@H](c2cccc(NS(=O)(=O)c3cn(C)cn3)c2)C(C)(C)C)C(=O)O1` (single isomer, unassigned) [Example 351, N-[3-{1(S or R)-(4-Hydroxy-5,6-dihydro-2-oxo-6(R or S)-(2-(4-fluorophenyl)ethyl)-6-propyl-2H-pyran-3-yl)-2,2-dimethyl-propyl}phenyl]-1-methyl-1H-imidazole-4-sulfonamide], the “PROTEASE % INHIB.” value was < 10% on HIV-1 protease [1] (setting [4]); < 10% on HIV-1 protease [1] (setting [5]); 25.4% on HIV-1 protease [1] (setting [6]); 55.11% on HIV-1 protease [1] (setting [7]); 78.53% at HIV-1 protease [1] (setting [8]); 90.55% on HIV-1 protease [1] (setting [9]). For the same compound, at HIV-1 protease [2] (setting [10]), the Ki was 558 nM.
As for `CCC[C@]1(CCc2ccc(F)cc2)CC(O)=C([C@H](c2cccc(NS(=O)(=O)c3cn(C)cn3)c2)C(C)(C)C)C(=O)O1` (single isomer, unassigned) [Example 352, N-[3-{1(S or R)-(4-Hydroxy-5,6-dihydro-2-oxo-6(S or R)-(2-(4-fluorophenyl)ethyl)-6-propyl-2H-pyran-3-yl)-2,2-dimethyl-propyl}phenyl]-1-methyl-1H-imidazole-4-sulfonamide], the “PROTEASE % INHIB.” value on HIV-1 protease [1] (setting [4]) was < 10%; on HIV-1 protease [1] (setting [5]), 25.31%; on HIV-1 protease [1] (setting [6]), 47.78%; on HIV-1 protease [1] (setting [7]) it was 74.99%; on HIV-1 protease [1] (setting [8]), 85.86%; on HIV-1 protease [1] (setting [9]), 87.82%. Moreover, the Ki at HIV-1 protease [2] (setting [10]) is 168 nM.
